The source of these data is patent US10465171B2, “7β-hydroxysteroid dehydrogenases and their use” (PharmaZell GmbH, priority 2009, dated 2019).

Entries after “also recorded” stand apart in the source; their conditions may differ.

Experiment [1] has as its target 7β-HSDH from Collinsella aerofaciens ATCC 25986 (DSM 3979) (Collinsella aerofaciens, UniProt A4ECA9). Briefly: Photometric identification of 7β-HSDH activity (cell extract of E. coli expressing the candidate). The format is biochemical. As to conditions: 0.1 mM test substance, potassium phosphate buffer 50 mM pH 8, in the presence of NADP+ or NADPH. As to the method: The expression was performed in 50 ml of LB medium. For the preparation of preculture, one colony on an LB agar plate was picked and incubated overnight at 37° C. and 160 Rpm in 5 ml of LB medium (contains relevant antibiotics) a. The 50 ml of LB medium (contains relevant antibiotics) was inoculated with 500 pi of preculture. The culture was incubated at 37° C. and 160 Rpm. Up to OD600 ca. 0.8, expression was induced by addition of 0.5 mM IPTG. After 6 hrs or one night, the cells were centrifuged down. The pellets were resuspended in 6 ml of potassium phosphate buffer (50 mM, pH 8, contains 0.1 mM PMSF) and disintegrated with ultrasound. The cell fragments were removed by centrifugation.
For the identification of 7β-HSDH activity the activity was tested by photometric methods. For this, enzyme and 0.1 mM of test substance (UDCA) in potassium phosphate buffer (50 mM, pH 8) were mixed in a 1 ml cuvette. After addition of NADPH(NADH) or NADP^+ (NAD^+), the degradation or formation of NAD(P)H was measured.

The target in experiment [2] is T1, 7β-HSDH from Collinsella aerofaciens DSM 3979 (Collinsella aerofaciens, UniProt A4ECA9). The format is biochemical.
The subject of experiment [3] is 7β-HSDH enzyme from C. aerofaciens ATCC25986 described by Hirano et al. Also on record: unit not given here. As to conditions: enzyme of Hirano et al; cited from earlier work.
The target of experiment [4] is T1, 7β-HSDH from Collinsella aerofaciens DSM 3979. Briefly: Preparative biotransformation of 7-keto-LCA by 7β-HSDH with ADH cofactor regeneration, HPLC analysis. It counts as biochemical. As to conditions: 0.4 g 7-keto-LCA, 100 U 7β-HSDH, 24° C., 24 hours, pH 8. As to the method:
The conversion of 7-keto-LCA by 7β-HSDH was performed in order to verify the biochemical function of 7β-HSDH. 0.4 g of 7-keto-LCA were suspended in 10 ml of potassium phosphate buffer (50 mM, pH 8) and the pH was adjusted to pH 8 by addition of 2M sodium hydroxide. 0.2 ml of isopropanol, 100 U of 7β-HSDH and 80 U of alcohol dehydrogenase (ADH-TE) from Thermoanaerobacter ethanolicus (kindly donated by Dr. K. Momoi, ITB University, Stuttgart) and 1 μmol NADP^+ were added. The same buffer was added, so as to obtain a total reaction volume of 20 ml. The reaction mixture was incubated at 24° C. and stirred for 24 hours. During this, NADPH was regenerated by means of ADH via the oxidation of 2-propanol. […]
An HPLC analysis was performed on a column of the Purospher® STAR RP-18 type (Hitbar® RT 125-4 Pre-Packed Column, Purospher® STAR RP-18 endcapped, Merck, Germany), equipped with a precolumn of the LiChroCART® STAR RP18 type (endcapped, Merck, Germany) on an LC20AD HPLC system (Shimadzu, Japan) at a flow rate of 1 ml/min. […] 20 μl sample (1 mg/ml) were analyzed. […]
To confirm the function of the enzyme, a biotransformation of 7-keto-LCA on the […] was performed, wherein the isolated enzyme was used in combination with ADH for the regeneration of NADPH with the use of 2-propanol, as already described. […] CDCA (retention time 19.4 min) was not detected in the reaction mixture.

T1 sequence (A4ECA9 whole entry): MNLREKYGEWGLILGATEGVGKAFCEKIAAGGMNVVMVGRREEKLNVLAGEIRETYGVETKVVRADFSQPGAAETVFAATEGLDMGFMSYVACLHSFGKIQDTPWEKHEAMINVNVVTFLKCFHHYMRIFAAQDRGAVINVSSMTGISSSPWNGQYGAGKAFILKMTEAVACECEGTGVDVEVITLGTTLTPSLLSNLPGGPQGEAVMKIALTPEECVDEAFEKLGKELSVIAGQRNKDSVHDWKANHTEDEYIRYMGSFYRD
Chain of 7β-HSDH from Collinsella aerofaciens ATCC 25986 (DSM 3979) (A4ECA9 whole entry): as above

Turning to `C[C@H](CCC(=O)O)[C@H]1CC[C@H]2[C@@H]3C(=O)C[C@@H]4CC(=O)CC[C@]4(C)[C@H]3CC(=O)[C@]12C` [DHCA, Dehydrocholic acid], in experiment [1], the activity was found to be 119 U/ml. On to `NC(=O)c1ccc[n+]([C@@H]2O[C@H](COP(=O)([O-])OP(=O)(O)OC[C@H]3O[C@@H](n4cnc5c(N)ncnc54)[C@H](OP(=O)(O)O)[C@@H]3O)[C@@H](O)[C@H]2O)c1` [NADP^+], for which the Vmax is given as 30.58 U/mg protein in experiment [2] and 0.2 in experiment [3]. Consider `NC(=O)C1=CN([C@@H]2O[C@H](COP(=O)(O)OP(=O)(O)OC[C@H]3O[C@@H](n4cnc5c(N)ncnc54)[C@H](O)[C@@H]3O)[C@@H](O)[C@H]2O)C=CC1` [NADH], for which, in experiment [2], the activity as coenzyme result is “very low activity” and the kcat entry is recorded as “traces”.

Turning to `NC(=O)c1ccc[n+]([C@@H]2O[C@H](COP(=O)([O-])OP(=O)(O)OC[C@H]3O[C@@H](n4cnc5c(N)ncnc54)[C@H](O)[C@@H]3O)[C@@H](O)[C@H]2O)c1` [NAD^+], in experiment [2], the activity as coenzyme entry is listed as “very low activity” and the kcat entry is on record as “traces”. `C[C@H](CCC(=O)O)[C@H]1CC[C@H]2[C@@H]3[C@@H](O)C[C@@H]4C[C@H](O)CC[C@]4(C)[C@H]3CC[C@]12C` [UDCA, Ursodeoxycholic acid]: the activity in experiment [1] amounted to 60 U/ml. As to `C[C@H](CCC(=O)O)[C@H]1CC[C@H]2[C@@H]3[C@H](O)C[C@@H]4C[C@H](O)CC[C@]4(C)[C@H]3C[C@H](O)[C@]12C` [CA, Cholic acid], the activity result in experiment [1] was “no activity; also recorded: not detectable”. Turning to `C[C@H](CCC(=O)O)[C@H]1CC[C@H]2[C@@H]3C(=O)C[C@@H]4C[C@H](O)CC[C@]4(C)[C@H]3CC[C@]12C` [7-keto-LCA, 7-keto-lithocholic acid], the activity in experiment [1] was determined as 35 U/ml. Moreover, the “conversion to UDCA” value in experiment [4] amounted to 90%. For NADPH, in experiment [2], the Vmax was 33.44 U/mg protein and the kcat was 1033.44 1 μmol/(μmol × min).
